# Data from patent US20160326558A1, “Process for Stimulating Hyaluronic Acid Production with Ascorbic Acid Derivatives and the Composition Thereof” (CORUM INC., priority 2012, published 2016).
# Several values for one entry are separate records, joined by “and”; a condition that tells them apart may be missing. Equal values may be shown once. Entries after “also recorded” stand apart in the source; their conditions may differ.
# Tests used:
# Format in all cases: cell-based
# [1] = tested on: mouse fibroblast (3T3); test: Stimulating hyaluronic acid production in mouse fibroblast, R&D HA-ELISA (Examples 3 and 5); settings: for Hyaluronic Acid Content Stimulated, Average / Hyaluronic Acid Content Stimulated, single entries: 72 h, vs negative control = 100%
# Method: (§1) Complete medium is used in cell seeding stage. The confluent 3T3 cells are rinsed with sterile D-PBS, and trypsinize all cells and perform cell counting. Then, dilute the cell density to 4E+04/mL and seed 0.5 mL cell liquid (equals to 2E+04 cells) each well in 24 well plates. Incubate 3T3 cells at 37° C., 5% CO2 for about 24 hours. Starvation medium is used in this stage. The 24-hour-cultured 3T3 cells are rinsed with sterile D-PBS and discarded rinse buffer. Controls and testing materials in different concentrations are respectively added into the 3T3 cells in 24 well plates. Then, the 3T3 cells are incubated at 37° C., with 5% CO2 for about 72 hours. After incubating for about 72 hours, transfer some supernatant of cells treated with controls and testing materials into new containers. Centrifuge the supernatants at 2000 rpm for 5˜10 minutes. The hyaluronic acid content of the centrifuged supernatants are respectively determined by Hyaluronan Enzyme-Linked Immunosorbent Assay Kit, and calculated with the following Formula 1. [formula] In this example, we try another brand HA-ELISA kit (R&D; Cat No. DHYAL0) to figure out the reproducibility of the stimulatory effect. Excluding replacing the HA-ELISA kit, the materials and the procedures can be referred to the above Example 1. In this example, we try to figure out whether the stimulatory effect also can be found on ascorbic acid. Excluding replacing the HA-ELISA kit to another brand HA-ELISA kit (R&D; Cat No. DHYAL0) and replacing the testing material to ascorbic acid, the other materials and the procedures can be referred to the above Example 1.
# [2] = tested on: human fibroblast (Hs68); test: Stimulating hyaluronic acid production in human fibroblast, Echelon HA-ELISA (Example 2); settings: for Hyaluronic Acid Content Stimulated, Average / Hyaluronic Acid Content Stimulated, single entries: 72 h, vs negative control = 100%
# Excerpt: (§2) Cell Line: Hs68 (BCRC 60038, purchased from Bioresource Collection and Research Center) Complete Medium (as positive control): DMEM medium with 10% Fetal Bovine Serum (DMEM purchased from Corning Incorporated and Caisson Labs; FBS purchased from Caisson Labs) Starvation Medium (as negative control): DMEM medium with 0.1% Fetal Bovine Serum (DMEM purchased from Corning Incorporated and Caisson Labs; FBS purchased from Caisson Labs) Hyaluronan Enzyme-Linked Immunosorbent Assay Kit (HA-ELISA) (Brand: Echelon/Cat No K-1200) Complete medium is used in cell seeding stage. The confluent Hs68 cells are rinsed with sterile D-PBS, and trypsinize all cells and perform cell counting. Then, dilute the cell density to 4E+04/mL and seed 0.5 mL cell liquid (equals to 2E+04 cells) each well in 24 well plates. Incubate Hs68 cells at 37° C., 5% CO2 for about 24 hours. Starvation medium is used in this stage. The 24-hour-cultured Hs68 cells are rinsed with sterile D-PBS and discarded rinse buffer. Controls and testing materials in different concentrations are respectively added into the Hs68 cells in 24 well plates. Then, the Hs68 cells are incubated at 37° C., with 5% CO2 for about 72 hours. After incubating for about 72 hours, transfer some supernatant of cells treating with controls and testing materials into new containers. Centrifuge the supernatants at 2000 rpm for 5˜10 minutes. The hyaluronic acid content of the centrifuged supernatants are respectively determined by Hyaluronan Enzyme-Linked Immunosorbent Assay Kit, and calculated with the following Formula 2. [formula]
# [3] = tested on: mouse fibroblast (3T3); test: Stimulating hyaluronic acid production in mouse fibroblast, Echelon HA-ELISA (Example 1)
# Excerpt: as §2, with “3T3” for “Hs68”, “60071,” for “60038,”, “0.1%” for “0.1% Fetal”, “treated” for “treating”, “1.” for “2.”
# [4] = tested on: human fibroblast (Hs68); test: Cell viability of human fibroblast (Example 2); settings: 10000 ppm
# [5] = tested on: human fibroblast (Hs68); test: Stimulating hyaluronic acid production in human fibroblast, R&D HA-ELISA (Example 4); settings: for Hyaluronic Acid Content Stimulated, Average / Hyaluronic Acid Content Stimulated, single entries: 72 h, vs negative control = 100%
# Method: as §1, with “Hs68” for “3T3”, “treating” for “treated”, “2.” for “1.”, “study” for “figure out”, “2.” for “1. In this example, we try to figure out whether the stimulatory effect also can be found on ascorbic acid. Excluding replacing the HA-ELISA kit to another brand HA-ELISA kit (R&D; Cat No. DHYAL0) and replacing the testing material to ascorbic acid, the other materials and the procedures can be referred to the above Example 1.”
# [6] = tested on: mouse fibroblast (3T3); test: Hyaluronic acid content stimulated by 3-O-ethyl ascorbic acid and AA2G in mouse fibroblast (Table 6); settings: for Hyaluronic Acid Content Stimulated, Average / Hyaluronic Acid Content Stimulated, single entries: vs negative control = 100%
# [7] = tested on: mouse fibroblast (3T3); test: Cell viability of mouse fibroblast (Example 1); settings: concentration larger than 7500 ppm
# [8] = 5000 ppm, 72 h, vs negative control = 100%
structure (smiles),measurement,setting,value
"O=C1O[C@H]([C@@H](O)CO)C(O)=C1O [Ascorbic Acid, ascorbic acid]",stimulation of hyaluronic acid production (in words),"[1]; 2-100 ppm, comparing to the negative control",can NOT stimulate hyaluronic acid production; also recorded: cannot be helpful
same,"Hyaluronic Acid Content Stimulated, Average","[1]; 2 ppm, Table 5",94%
same,"Hyaluronic Acid Content Stimulated, single entries","[1]; 2 ppm, Table 5",99% and 64% and 119%
same,"Hyaluronic Acid Content Stimulated, Average","[1]; 10 ppm, Table 5",101%
same,"Hyaluronic Acid Content Stimulated, single entries","[1]; 10 ppm, Table 5",93% and 108% and 101%
same,"Hyaluronic Acid Content Stimulated, Average","[1]; 50 ppm, Table 5",102%
same,"Hyaluronic Acid Content Stimulated, single entries","[1]; 50 ppm, Table 5",105% and 100% and 102%
same,"Hyaluronic Acid Content Stimulated, Average","[1]; 100 ppm, Table 5",91%
same,"Hyaluronic Acid Content Stimulated, single entries","[1]; 100 ppm, Table 5",87% and 93% and 94%
CCOC1=C(O)C(=O)O[C@@H]1[C@@H](O)CO [3-O-ethyl-ascorbic acid],"Hyaluronic Acid Content Stimulated, Average",[1]; 1.25 ppm,143.0%
same,"Hyaluronic Acid Content Stimulated, single entries",[1]; 1.25 ppm,100.0% and 156.8% and 172.0%
same,"Hyaluronic Acid Content Stimulated, Average",[1]; 2.5 ppm,145.9%
same,"Hyaluronic Acid Content Stimulated, single entries",[1]; 2.5 ppm,119.7% and 135.2% and 182.8%
same,"Hyaluronic Acid Content Stimulated, Average",[1]; 5 ppm,137.1%
same,"Hyaluronic Acid Content Stimulated, Average",[1]; 7.5 ppm,135.9%
same,"Hyaluronic Acid Content Stimulated, single entries",[1]; 7.5 ppm,115.9% and 143.8% and 148.1%
same,"Hyaluronic Acid Content Stimulated, Average","[1]; 10 ppm, Table 3",147.1%
same,"Hyaluronic Acid Content Stimulated, single entries","[1]; 10 ppm, Table 3",101.0% and 158.1% and 182.2%
same,"Hyaluronic Acid Content Stimulated, Average","[1]; 100 ppm, Table 3",171.2%
same,"Hyaluronic Acid Content Stimulated, single entries","[1]; 100 ppm, Table 3",166.8% and 155.7% and 191.2%
same,"Hyaluronic Acid Content Stimulated, Average",[1]; 1000 ppm,177.8%
same,"Hyaluronic Acid Content Stimulated, Average",[1]; 2500 ppm,159.3%
same,"Hyaluronic Acid Content Stimulated, single entries",[1]; 2500 ppm,148.7% and 176.3% and 152.8%
same,"stimulated hyaluronic acid production, dose dependence (in words)",[1]; 5000-5 ppm,dose-dependently
same,"Hyaluronic Acid Content Stimulated, Average",[1]; 5000 ppm,184.2%
same,"Hyaluronic Acid Content Stimulated, single entries",[1]; 5000 ppm,131.8% and 180.4%
same,"Hyaluronic Acid Content Stimulated, Average",[1]; 7500 ppm,143.8%
same,"Hyaluronic Acid Content Stimulated, single entries",[1]; 7500 ppm,119.9% and 130.8% and 180.7%
same,"Hyaluronic Acid Content Stimulated, Average",[1]; 10000 ppm,109.0%
same,"Hyaluronic Acid Content Stimulated, Average",[2]; 10 ppm,107.2%
same,"Hyaluronic Acid Content Stimulated, single entries",[2]; 10 ppm,92.7% and 123.3% and 105.7%
same,"Hyaluronic Acid Content Stimulated, Average",[2]; 100 ppm,148.8%
same,"Hyaluronic Acid Content Stimulated, single entries",[2]; 100 ppm,200.9% and 130.3% and 115.1%
same,"stimulated hyaluronic acid production, dose dependence (in words)",[2]; 1000-10 ppm,dose-dependently
same,"Hyaluronic Acid Content Stimulated, Average",[2]; 1000 ppm,182.7%
same,"Hyaluronic Acid Content Stimulated, single entries",[2]; 1000 ppm,170.1% and 172.6%
same,"Hyaluronic Acid Content Stimulated, Average",[2]; 10000 ppm,32.5%
same,stimulated hyaluronic acid production (in words),[3]; 10-5000 ppm,efficiently increased
same,"Hyaluronic Acid Content Stimulated, Average","[3]; 10 ppm, 72 h, vs negative control = 100%",164.6%
same,"Hyaluronic Acid Content Stimulated, Average","[3]; 100 ppm, 72 h, vs negative control = 100%",133.1%
same,"Hyaluronic Acid Content Stimulated, Average","[3]; 1000 ppm, 72 h, vs negative control = 100%",148.9%
same,"Hyaluronic Acid Content Stimulated, Average","[3]; 2500 ppm, 72 h, vs negative control = 100%",165.0%
same,"Hyaluronic Acid Content Stimulated, Average",[3]; [8],149.0%
same,"Hyaluronic Acid Content Stimulated, single entries",[3]; [8],110.3% and 214.1% and 161.9% and 109.6%
same,"Hyaluronic Acid Content Stimulated, Average","[3]; 7500 ppm, 72 h, vs negative control = 100%",91.0%
same,"Hyaluronic Acid Content Stimulated, Average","[3]; 10000 ppm, 72 h, vs negative control = 100%",89.4%
same,cell viability,[4],inhibited
same,"Hyaluronic Acid Content Stimulated, Average",[5]; 1.25 ppm,112.6%
same,"Hyaluronic Acid Content Stimulated, single entries",[5]; 1.25 ppm,102.1% and 126.8% and 102.4% and 119.0%
same,"Hyaluronic Acid Content Stimulated, Average",[5]; 2.5 ppm,136.7%
same,"Hyaluronic Acid Content Stimulated, single entries",[5]; 2.5 ppm,149.7% and 125.3% and 111.4% and 160.5%
same,"Hyaluronic Acid Content Stimulated, Average",[5]; 5 ppm,123.1%
same,"Hyaluronic Acid Content Stimulated, single entries",[5]; 5 ppm,110.6% and 110.9% and 103.8% and 167.0%
same,"Hyaluronic Acid Content Stimulated, Average",[5]; 7.5 ppm,134.0%
same,"Hyaluronic Acid Content Stimulated, Average",[5]; 10 ppm,97.7%
same,"Hyaluronic Acid Content Stimulated, single entries",[5]; 10 ppm,89.1% and 101.2% and 91.2% and 109.5%
same,"Hyaluronic Acid Content Stimulated, Average",[5]; 100 ppm,121.9%
same,"Hyaluronic Acid Content Stimulated, Average",[5]; 1000 ppm,133.9%
same,"Hyaluronic Acid Content Stimulated, single entries",[5]; 1000 ppm,125.4% and 134.8% and 122.6% and 152.7%
same,"Hyaluronic Acid Content Stimulated, Average",[5]; 2500 ppm,103.6%
same,"Hyaluronic Acid Content Stimulated, single entries",[5]; 2500 ppm,99.2% and 96.7% and 78.7% and 140.0%
same,"Hyaluronic Acid Content Stimulated, Average",[5]; 5000 ppm,91.0%
same,"Hyaluronic Acid Content Stimulated, single entries",[5]; 5000 ppm,110.0% and 70.6% and 103.2% and 80.3%
same,"Hyaluronic Acid Content Stimulated, Average",[5]; 7500 ppm,73.1%
same,"Hyaluronic Acid Content Stimulated, Average",[5]; 10000 ppm,40.7%
same,"Hyaluronic Acid Content Stimulated, single entries",[5]; 10000 ppm,50.9% and 32.1% and 37.2% and 42.4%
same,"stimulated hyaluronic acid production, dose dependence (in words)",[5]; about 1000-10 ppm,dose-dependently
same,"Hyaluronic Acid Content Stimulated, Average",[6]; 10 ppm,122%
same,"Hyaluronic Acid Content Stimulated, single entries",[6]; 10 ppm,125% and 122% and 118%
same,"Hyaluronic Acid Content Stimulated, Average",[6]; 100 ppm,138%
same,"Hyaluronic Acid Content Stimulated, single entries",[6]; 100 ppm,115% and 161% and 138%
same,"Hyaluronic Acid Content Stimulated, Average",[6]; 1000 ppm,171%
same,"Hyaluronic Acid Content Stimulated, single entries",[6]; 1000 ppm,180% and 165% and 168%
same,stimulatory of producing hyaluronic acid (in words),"[6]; Table 6, 10-1000 ppm",helpful to the stimulatory of producing hyaluronic acid
same,cell viability,[7],inhibited
